# According to publication PMC5748279, “Novel Antitubercular 6-Dialkylaminopyrimidine Carboxamides from Phenotypic Whole-Cell High Throughput Screening of a SoftFocus Library: Structure–Activity Relationship and Target Identification Studies” (Journal of Medicinal Chemistry, 2017):
# Values joined by “and” are separate entries in the source; they are usually repeats but may differ in a detail not shown here. Equal entries are not always repeated.
# Legend:
# physchem [1] = format: physicochemical
# Method: (§1) The kinetic solubility assay was performed using a miniaturised shake flask method. 10 mM stock […]
# (§2) DMSO, and to spike (1:50) duplicate aqueous samples of FaSSIF (simulating fasting state biorelevant media, pH 6.5), with a final DMSO concentration of 2%. After shaking for 2 hours at 25 °C, the solutions were filtered and analysed by means of HPLC,DAD (Agilent 1200 Rapid Resolution HPLC with a diode array detector). Best fit calibration curves were constructed using the calibration standards, which were used to determine the aqueous samples’ solubility.13
# (§3) 4.2) Microsomal stability
# (§4) The metabolic stability assay was performed in duplicate in a 96,well micro titre plate. The test compounds (0.1 µM) were incubated individually in mouse, rat and pooled human liver […]
# (§5) the cofactor NADPH (1 mM). Reactions were quenched by adding 300 µL of ice cold acetonitrile containing internal standard (carbamazepine, 0.0236 µg/mL). Test compounds in the supernatant were analysed by means of LC,MS/MS (Agilent Rapid Resolution HPLC, AB SCIEX 4000 QTRAP MS) for the disappearance of parent compound. Metabolite searches were not conducted during the metabolic stability assay.14
# (§6) 4.3) Plasma protein binding (PPB) assay
# The plasma protein binding assay was performed in a 96,well micro titre plate with pooled human plasma, spiked with test compound (5 µM). An aliquot was immediately removed and quenched using ice cold acetonitrile containing internal standard (carbamazepine, 0.0236 µg/mL), and placed in the freezer. This served as the total concentration sample. After pre,incubation (37 °C for 1 hour) duplicate aliquots of the spiked plasma were transferred to ultra,centrifugation tubes, […]
# [2] = tested on: Mycobacterium tuberculosis (H37RvMa); assay: microbe, parasite or virus in culture; format: cell-based; conditions: for MIC99 7H9/ADC / fold more potent in 7H9/ADC compared to 1: 7H9/ADC medium; for MIC99 GAST/Fe / fold more potent in GAST/Fe compared to 1: GAST/Fe medium; for fold more potent in 7H9/ADC compared to 1 / fold more potent in GAST/Fe compared to 1: versus compound 1; for MIC: Mycobacterium tuberculosis, medium not stated
# [3] = tested on: PrecA-LUX reporter (genotoxic compounds); format: cell-based; conditions: luminescence over 7 days, CIPRO control
# in vivo = conditions: male, C57/BL6, mouse
# [4] = tested on: PiniB-LUX reporter (Mtb cell wall biosynthesis); format: cell-based; conditions: luminescence over 7 days, INH control
# [5] = format: in vitro ADME
# Method: and ultracentrifuged for 4 hours (42000 rpm, 37 °C, Beckman Optima L,80XP). Analyte concentration of all compounds and sample types were determined by means of LC,MS/MS (Agilent Rapid Resolution HPLC, AB SCIEX 4000 QTRAP MS).
# 4.4) Lipophilicity (LogD7.4)
# The lipophilicity assay was performed in triplicate using a shake,flask procedure. 10 mM stock solutions of each test compound were used to spike (100 µM) a 1:1 mixture of phosphate buffer (pH 7.4) and n,octanol. The solutions were shaken vigorously (1500 rpm) on an orbital shaker for 3 hours at room temperature. Thereafter the samples were centrifuged in order to fully separate the two immiscible fluids. The samples were analysed by HPLC,DAD (Agilent 1200 Rapid Resolution HPLC with a diode array detector) and the amount of compound in the buffer and n, octanol were used to determine the partition coefficient, LogD7.4.15
# 4.5) Parallel Artificial Membrane Permeability Assay (PAMPA):
# The PAMPA assay was performed in triplicate in 96,well MultiScreen Filter plates (Millipore, 0.4 µM PCTE Membrane). Membrane filters were pre,coated with 5% hexadecane in hexane and allowed to dry prior to the assay. Membrane integrity marker, Lucifer yellow was added to the apical wells of the pre,coated MultiScreen plate donor/drug solutions containing test compound.
# Phosphate buffer (pH7.4) was added to the 96,well acceptor plate. 10 mM test compound was used to spike (1 µM) the donor buffer at physiologically relevant pH's (pH 4, 6.5 and 8), the donor plate slotted into the acceptor plate and incubated (4 hours at room temperature) with gentle shaking (40,50 rpm). Following the incubation, sample from the acceptor wells and theoretical equilibrium wells were transferred to the analysis plate and matrix matched with blank donor buffer. Acetonitrile containing internal standard (carbamazepine, 0.0236 µg/mL) was added to all samples and they were analysed by LC,MS/MS (Agilent Rapid Resolution HPLC, AB SCIEX 4500 MS). The normalised (analyte/internal) peak areas were used to calculate the apparent permeability (Papp). Membrane integrity was assessed by calculating the Papp of Lucifer Yellow […]
# chemosensitivity. […]. Thus only viable cells […]
# formazan. Formazan crystals are dissolved in DMSO. The test samples were tested in triplicate on […]
# experiment. […] Emetine was used […]
# as the reference drug in all experiments. The initial concentration of emetine was 100 µg/mL, […]
# lowest being 0.001 µg/mL. […] The […]
# the cell viability (data not shown).
# GraphPad Prism v.4 software. […]
# expressing the full length hERG channel. Single cell ionic currents were measured in the […]
# [6] = Caseum binding using surrogate caseum
# [7] = tested on: Mtb::gfp strain (H37RvMa::pMSP12GFP); format: cell-based; conditions: supplementary csv; for MIC99 7H9/ADC (values marked c: GFP strain based assay): 7H9/ADC medium; for MIC99 GAST/Fe (values marked c: GFP strain based assay): GAST/Fe medium
# BCG_3193 (Rv3169) [8] = biological target: T1, BCG_3193 (Rv3169) (Mycobacterium bovis BCG, UniProt A0A1R3Y3B6); assay: biochemical; format: binding
# T1 sequence (A0A1R3Y3B6 1-374): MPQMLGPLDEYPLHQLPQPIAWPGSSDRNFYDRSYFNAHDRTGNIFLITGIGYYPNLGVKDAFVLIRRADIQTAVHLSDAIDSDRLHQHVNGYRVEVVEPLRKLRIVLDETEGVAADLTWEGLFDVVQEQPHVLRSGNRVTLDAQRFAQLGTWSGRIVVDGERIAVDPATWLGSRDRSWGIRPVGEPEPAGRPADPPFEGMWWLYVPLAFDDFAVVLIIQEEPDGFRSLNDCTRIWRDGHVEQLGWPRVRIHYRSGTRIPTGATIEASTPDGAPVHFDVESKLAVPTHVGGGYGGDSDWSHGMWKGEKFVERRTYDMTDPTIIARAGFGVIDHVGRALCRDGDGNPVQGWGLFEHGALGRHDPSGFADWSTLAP
# BCG_3827 (Rv3768) = format: binding, Mycobacterium bovis BCG
# BCG_3193 (Rv3169) [9] = biological target: T1, BCG_3193 (Rv3169); assay: biochemical; set-up: species or system Mycobacterium bovis BCG extract; conditions: bead competition in BCG extract
# [10] = tested on: Mycobacterium tuberculosis (H37RvMa); assay: microbe, parasite or virus in culture; set-up: MIC99 by standard broth microdilution against M. tuberculosis H37Rv; conditions: read-out: MIC99 7H9/ADC (æM)
# physchem [11] = conditions: sheet table;; kinetic solubility, pH 7.4; aqueous buffer pH 7.4; Kinetic solubility at pH 7.4; read-out: Solubility (æM)
# Method: as §1, §2, §3, §4, §5, §6
# The plasma protein binding assay was performed in a 96,well micro titre plate with pooled human plasma, spiked with test compound (5 µM). […]
compound,measurement,setting,value
6-((4-Cyanobenzyl)(methyl)amino)-N-phenylpyrimidine-4-carboxamide [Compound 16],solubility kinetic at 2 h,physchem [1]; pH 7.4,<5 µM
same,Solubility,physchem [1]; supplementary csv,<5 æM
same,MIC99 7H9/ADC,[2],>50 µM
same,MIC99 7H9/ADC,[2]; supplementary csv,>50 æM
same,MIC99 GAST/Fe,[2],20 µM
same,MIC99 GAST/Fe,[2]; supplementary csv,20 æM
6-(Benzyloxy)-N-phenylpyrimidine-4-carboxamide [Compound 4],MIC99 7H9/ADC,[2],>160 µM
same,MIC99 7H9/ADC,[2]; supplementary csv,>160 æM
"CN(Cc1ccc(F)cc1)c1cc(C(=O)Nc2ccccc2)ncn1 [Compound 10, 6-((4-Fluorobenzyl)(methyl)amino)-N-phenylpyrimidine-4-carboxamide]",fold more potent in 7H9/ADC compared to 1,[2],≥ 4 fold
same,fold more potent in GAST/Fe compared to 1,[2],≥ 2 fold
"CN(Cc1ccc(Cl)cc1)c1cc(C(=O)Nc2ccccc2)ncn1 [Compound 11, 6-((4-Chlorobenzyl)(methyl)amino)-N-phenylpyrimidine-4-carboxamide]",fold more potent in 7H9/ADC compared to 1,[2],≥ 4 fold
same,fold more potent in GAST/Fe compared to 1,[2],≥ 2 fold
"CN(Cc1ccc(C(F)(F)F)cc1)c1cc(C(=O)Nc2ccccc2)ncn1 [Compound 12, 6-(Methyl(4-(trifluoromethyl)benzyl)amino)-N-phenylpyrimidine-4-carboxamide]",PrecA-LUX reporter response,[3],delayed (Day 3 onwards) induction of luminescence
same,AUC(0-inf) at 24 h,"in vivo; iv, 5 mg/kg",20.4 µM·h
same,clearance at 24 h,"in vivo; iv, 5 mg/kg",11.3 mL/min/kg
same,half-life at 24 h,"in vivo; iv, 5 mg/kg",4.6 h
same,AUC(0-inf) at 24 h,"in vivo; po, 20 mg/kg",22.2 µM·h
same,half-life at 24 h,"in vivo; po, 20 mg/kg",8.7 h
same,PiniB-LUX reporter response,[4],"a weak, delayed response"
same,PAMPA log Papp,[5],–4.9
same,caseum distribution unbound,[6],0.1%
"COc1ccc(NC(=O)c2cc(N(C)Cc3cccc(F)c3)ncn2)cc1 [Compound 13, 6-((3-Fluorobenzyl)(methyl)amino)-N-(4-methoxyphenyl)pyrimidine-4-carboxamide]",PrecA-LUX reporter response,[3],delayed (Day 3 onwards) induction of luminescence
same,PiniB-LUX reporter response,[4],"a weak, delayed response"
"CN(Cc1ccc(S(C)(=O)=O)cc1)c1cc(C(=O)Nc2ccccc2)ncn1 [Compound 17, 6-(Methyl(4-(methylsulfonyl)benzyl)amino)-N-phenylpyrimidine-4-carboxamide]",MIC99 7H9/ADC (values marked c: GFP strain based assay),[7],>125c æM
same,MIC99 GAST/Fe (values marked c: GFP strain based assay),[7],>125c æM
"CN(Cc1cccnc1)c1cc(C(=O)Nc2ccccc2)ncn1 [Compound 19, 6-(Methyl(pyridin-3-ylmethyl)amino)-N-phenylpyrimidine-4-carboxamide]",MIC99 7H9/ADC (values marked c: GFP strain based assay),[7],48c æM
same,MIC99 GAST/Fe (values marked c: GFP strain based assay),[7],37c æM
"CN(Cc1ccc(C(F)(F)F)nc1)c1cc(C(=O)Nc2ccccc2)ncn1 [Compound 20, 6-(Methyl((6-(trifluoromethyl)pyridin-3-yl)methyl)amino)-N-phenylpyrimidine-4-carboxamide]",AUC(0-inf) at 24 h,"in vivo; iv, 5 mg/kg",19.6 µM·h
same,clearance at 24 h,"in vivo; iv, 5 mg/kg",11.2 mL/min/kg
same,AUC(0-inf) at 24 h,"in vivo; po, 20 mg/kg",33.3 µM·h
same,PAMPA log Papp,[5],–3.8
"CN(Cc1ccc(C(F)(F)F)cc1)c1cc(C(=O)NC2CCCCC2)ncn1 [Compound 34, N-Cyclohexyl-6-(methyl(4-(trifluoromethyl)benzyl)amino)pyrimidine-4-carboxamide]",MIC99 7H9/ADC (values marked c: GFP strain based assay),[7],>125c æM
same,MIC99 GAST/Fe (values marked c: GFP strain based assay),[7],12c æM
"CN1CCN(c2ccc(NC(=O)c3cc(N(C)Cc4ccc(C(F)(F)F)cc4)ncn3)cc2)CC1 [Compound 40, 6-(Methyl(4-(trifluoromethyl)benzyl)amino)-N-(4-(4-methylpiperazin-1-yl)phenyl)pyrimidine-4-carboxamide]",AUC(0-inf) at 24 h,"in vivo; iv, 5 mg/kg",9 µM·h
same,half-life at 24 h,"in vivo; iv, 5 mg/kg",10.3 h
same,AUC(0-inf) at 24 h,"in vivo; po, 20 mg/kg",9.4 µM·h
same,half-life at 24 h,"in vivo; po, 20 mg/kg",15.8 h
same,Hill,BCG_3193 (Rv3169) [8],1.62
same,binding of BCG_3193 to the compound beads in presence of free compound,BCG_3193 (Rv3169) [8],reduced binding
same,IC50,BCG_3193 (Rv3169) [8]; IC50,1100 nM
same,Kd,BCG_3193 (Rv3169) [8]; apparent dissociation constant Kd^app for BCG_3193,610 nM and 690 nM
same,IC50,BCG_3193 (Rv3169) [8]; pIC50,1100 nM
same,IC50,BCG_3827 (Rv3768),10000 nM
same,binding of BCG_3827 to the compound beads in presence of free compound,BCG_3827 (Rv3768),reduced binding
same,Kd,BCG_3827 (Rv3768); read-out: apparent dissociation constant Kd^app for BCG_3827,2100 nM and 3800 nM
same,IC50,"BCG_3193 (Rv3169) [9]; IC50, Experiment ID=X028553",1700 nM
same,IC50,"BCG_3193 (Rv3169) [9]; IC50, Experiment ID=X028554",1500 nM
same,PAMPA log Papp,[5],–4.5
same,caseum distribution unbound,[6],0.1%
"CN1CCN(c2cccc(NC(=O)c3cc(N(C)Cc4ccc(F)cc4)ncn3)c2)CC1 [Compound 42, 6-((4-Fluorobenzyl)(methyl)amino)-N-(3-(4-methylpiperazin-1-yl)phenyl)pyrimidine-4-carboxamide]",MIC values dropping by fold,[2]; 3-position versus 4-position N-methylpiperazine,10- to 30 fold
"CN(Cc1ccc(F)cc1)c1cc(C(=O)Nc2ccc(N3CCOCC3)cc2)ncn1 [Compound 45, 6-((4-Fluorobenzyl)(methyl)amino)-N-(4-morpholinophenyl)pyrimidine-4-carboxamide]",MIC,[2],< 5 µM
"CN(Cc1ccc(C(F)(F)F)nc1)c1cc(C(=O)Nc2ccc(N3CCOCC3)cn2)ncn1 [Compound 46, 6-(Methyl((6-(trifluoromethyl)pyridin-3-yl)methyl)amino)-N-(5-morpholinopyridin-2-yl)pyrimidine-4-carboxamide]",MIC,[2],2 to 3 µM
"CN(Cc1ccc(F)cc1)c1cc(C(=O)Nc2nncs2)ncn1 [Compound 51, 6-((4-Fluorobenzyl)(methyl)amino)-N-(1,3,4-thiadiazol-2-yl)pyrimidine-4-carboxamide]",AUC(0-inf) at 24 h,"in vivo; iv, 5 mg/kg",22.1 µM·h
same,clearance at 24 h,"in vivo; iv, 5 mg/kg",11.1 mL/min/kg
same,half-life at 24 h,"in vivo; iv, 5 mg/kg",5.1 h
same,AUC(0-inf) at 24 h,"in vivo; po, 20 mg/kg",17 µM·h
same,half-life at 24 h,"in vivo; po, 20 mg/kg",4.4 h
same,solubility kinetic at 2 h,"physchem [1]; pH 7.4, pH 7.4",> 100 µM
same,caseum distribution unbound,[6],0.5%
O=C(Nc1ccccc1)c1cc(OCC2CCCCC2)ncn1 [compound 4],MIC99,[10],> 160 µM
[C-]#[N+]c1ccc(CN(C)c2cc(C(=O)Nc3ccccc3)ncn2)cc1 [compound 16],MIC99,[10],> 50 µM
same,solubility at 2 h,physchem [11],< 5 µM
